Assay results from US6894037B2, “2-methylene-19-nor-20(S)-25-methyl-1α-hydroxycalciferol and its uses” (Wisconsin Alumni Research Foundation, priority 2003, dated 2005).
“Also recorded” adds a separate entry of the source.

Columns and labels:
CD-1 mice [1] = experiment: Bone calcium mobilization: serum calcium of mice fed 0.02% calcium diet after single oral dose; type: in vivo; details: for Bone Calcium Mobilization (serum calcium): single oral gavage, 0.02% calcium diet; for Bone calcium mobilization activity (bone resorption in vivo), in words: single oral dose, mice on 0.02% calcium diet
Excerpt: Goal: Determine whether or not TMM has bone calcium mobilization activity and how it compares to 1,25(OH)2D3 and 2-methylene-19-nor-20(S)-1α, 25-(OH)2D3 (hereinafter referred to as 2MD).
5-6 week old CD-1 mice were placed in the +D mouse room and fed chow diet. They were allowed to acclimate for 5 days before being switched to a purified diet described by Yang et al (Arch. Biochem. Biphys. 303, 98, 1993) containing 0.02% calcium and 0.3% P. Two days after the diet switch, dose administration began. Experimental Design:
All animals were weighed prior to dosing. The animals were divided into groups containing 5 animals/group. All animals were administered the drug by oral gavage one time. The dose was delivered in 100 μl Neobee oil/25 g mouse. […] The rise in serum calcium comes from bone mobilization only since no calcium is available from the intestine.
Mice fed a 0.02% calcium diet can only elevate their serum calcium levels by resorbing bone because no calcium is available through intestinal absorption. […] At lower doses, there was no significant elevation of serum calcium. […] Thus, the importance of the 25-hydroxyl for bone calcium mobilization is illustrated.

[2] = previous work; cited from earlier work
HL-60 promyelocytes = experiment: Differentiation of HL-60 promyelocytes into monocytes (NBT reduction); type: cell-based; details: compared with 1,25-(OH)2D3; FIG. 2
Experimental: FIG. 2 is a graph illustrating the percent HL-60 cell differentiation as a function of the concentration of 2-methylene-19-nor-20(S)-25-methyl-1α-hydroxycalciferol or 1α,25-dihydroxyvitamin D3; and
The differentiation of HL-60 promyelocytes into monocytes was determined as described by Ostrem et al (J. Biol. Chem. 262, 14164-14171, 1987).
Induction of differentiation of HL-60 promyelocytes to monocytes by 1α,25-(OH)2D3 and the synthesized vitamin D analog was determined by measuring the percentage of cells reducing nitro blue tetrazolium (NBT). The experiment was repeated three times. The values ED50 can be derived from dose-response curves (FIG. 2) and represent the analog concentration capable of inducing 50% maturation. Differentiation activity ratio can then be determined from the ratio of the analog average ED50 to the ED50 for 1α,25-(OH)2D3.

CD-1 mice [3] = experiment: Intestinal calcium transport: serum calcium of alendronate-treated mice on 0.47% calcium diet; type: in vivo; details: FIG. 3
Excerpt: FIG. 3 is a graph illustrating serum calcium versus time of mice injected with vehicle plus alendronate, with 1α,25-dihydroxyvitamin D3 plus alendronate, or with 2-methylene-19-nor-20(S)-25-methyl-1α-hydroxycalciferol (TMM) plus alendronate. Since alendronate blocks bone resorption the rise in serum calcium reflects only intestinal absorption.
In this measurement, alendronate is used to block bone resorption so the rise in serum calcium is because of increased calcium absorption from the intestine.
Goal: Determine whether or not TMM has intestinal calcium transport activity and how it compares to 1,25(OH)2D3.
5-6 week old CD-1 mice were placed in the +D mouse room and fed chow diet. They were allowed to acclimate for 7 days before being switched to a diet containing 0.47% calcium.
All animals were weighed prior to dosing and divided into groups containing 5 animals/treatment group. […] Once all time points were collected, the serum was diluted 1:50 in 0.1% Lanthum Chloride and analyzed by atomic absorption spectrometry for determination of total serum calcium levels. • Group 1: Neobee oil+Alendronate (1.75 mg/kg bw) • Group 2: 40.5 ug 1,25(OH)2D3/kg bw+Alendronate (1.75 mg/kg bw) • Group 3: 4.5 ug TMM/kg bw+Alendronate (1.75 mg/kg bw) • Group 4: 13.5 ug TMM/kg bw+Alendronate (1.75 mg/kg bw) • Group 5: 40.5 ug TMM/kg bw+Alendronate (1.75 mg/kg bw) Results: […]

[4] = system: porcine intestinal vitamin D receptor; experiment: Competitive binding to the porcine intestinal vitamin D receptor, displacement of [3H]-1,25-(OH)2-D3; details: compared with the native hormone 1,25-(OH)2D3; FIG. 1
Experimental: FIG. 1 is a graph illustrating the relative activity of 2-methylene-19-nor-20(S)-25-methyl-1α-hydroxycalciferol or 1α,25-dihydroxyvitamin D3 to compete for binding of [3H]-1,25-(OH)2—D3 to the vitamin D pig intestinal nuclear receptor;
Competitive binding of the analog to the porcine intestinal receptor was carried out by the method described by Dame et al (Biochemistry 25, 4523-4534, 1986).
Competitive binding of 1α, 25-(OH)2D3 and the synthesized vitamin D analog to the porcine intestinal vitamin D receptor was carried out in triplicate on two different occasions. ED50 values can be derived from dose-response curves (FIG. 1) and represent the analog concentration required for 50% displacement of the radiolabeled 1α,25-(OH)2D3 from the receptor protein. Binding ratio can then be determined from the ratio of the analog average ED50 to the ED50 for 1α,25-(OH)2D3.

| SMILES | Bone calcium mobilization activity (bone resorption in vivo), in words (CD-1 mice [1]; Table 1) | Bone Calcium Mobilization (serum calcium) (CD-1 mice [1]; 0.5 μg/kg, 0 hr (predose)) | Bone Calcium Mobilization (serum calcium) (CD-1 mice [1]; 0.5 μg/kg, 24 hr) | Bone Calcium Mobilization (serum calcium) (CD-1 mice [1]; 0.5 μg/kg, 48 hr) | Bone Calcium Mobilization (serum calcium) (CD-1 mice [1]; 0.5 μg/kg, 72 hr) | Bone Calcium Mobilization (serum calcium) (CD-1 mice [1]; 1.5 μg/kg, 0 hr (predose)) | Bone Calcium Mobilization (serum calcium) (CD-1 mice [1]; 1.5 μg/kg, 24 hr) | Bone Calcium Mobilization (serum calcium) (CD-1 mice [1]; 1.5 μg/kg, 48 hr) | Bone Calcium Mobilization (serum calcium) (CD-1 mice [1]; 1.5 μg/kg, 72 hr) | Bone Calcium Mobilization (serum calcium) (CD-1 mice [1]; 4.5 μg/kg, 0 hr (predose)) | Bone Calcium Mobilization (serum calcium) (CD-1 mice [1]; 4.5 μg/kg, 24 hr) | Bone Calcium Mobilization (serum calcium) (CD-1 mice [1]; 4.5 μg/kg, 48 hr) | Bone Calcium Mobilization (serum calcium) (CD-1 mice [1]; 4.5 μg/kg, 72 hr) | Bone Calcium Mobilization (serum calcium) (CD-1 mice [1]; 13.5 μg/kg, 0 hr (predose)) | Bone Calcium Mobilization (serum calcium) (CD-1 mice [1]; 13.5 μg/kg, 24 hr) | Bone Calcium Mobilization (serum calcium) (CD-1 mice [1]; 13.5 μg/kg, 48 hr) | Bone Calcium Mobilization (serum calcium) (CD-1 mice [1]; 13.5 μg/kg, 72 hr) | other results |
| --- | --- | --- | --- | --- | --- | --- | --- | --- | --- | --- | --- | --- | --- | --- | --- | --- | --- | --- |
| C=C1/C(=C\C=C2/CCC[C@]3(C)[C@@H]([C@H](C)CCCC(C)(C)O)CC[C@@H]23)C[C@@H](O)C[C@@H]1O [1α,25(OH)2D3, 1α,25-dihydroxyvitamin D3] | effective at 50 μg/kg bw and 450 μg/kg bw |  |  |  |  |  |  |  |  |  |  |  |  |  |  |  |  | Bone Calcium Mobilization (serum calcium) (CD-1 mice [1]; 50 μg/kg, 0 hr (predose)): 8.8 ± 0.2 mg/dL; Bone Calcium Mobilization (serum calcium) (CD-1 mice [1]; 50 μg/kg, 24 hr): 10.9 ± 0.1 mg/dL; Bone Calcium Mobilization (serum calcium) (CD-1 mice [1]; 50 μg/kg, 48 hr): 9.6 ± 0.3 mg/dL; Bone Calcium Mobilization (serum calcium) (CD-1 mice [1]; 50 μg/kg, 72 hr): 9.1 ± 0.2 mg/dL; Bone Calcium Mobilization (serum calcium) (CD-1 mice [1]; 450 μg/kg, 0 hr (predose)): 8.8 ± 0.2 mg/dL; Bone Calcium Mobilization (serum calcium) (CD-1 mice [1]; 450 μg/kg, 24 hr): 11.6 ± 0.3 mg/dL; Bone Calcium Mobilization (serum calcium) (CD-1 mice [1]; 450 μg/kg, 48 hr): 11.4 ± 0.7 mg/dL; Bone Calcium Mobilization (serum calcium) (CD-1 mice [1]; 450 μg/kg, 72 hr): 9.4 ± 0.4 mg/dL; Intestinal calcium absorption activity relative to 2-methylene-19-nor-20(S)-1α, 25-(OH)2D3 [2]: about the same activity |
| C=C1[C@H](O)CC(=C/C=C2\CCC[C@]3(C)[C@@H]([C@@H](C)CCCC(C)(C)C)CC[C@@H]23)C[C@H]1O [TMM, 2-methylene-19-nor-20(S)-25-methyl-1α-hydroxycalciferol] | only at the highest dose caused bone resorption in vivo; also recorded: very little bone calcium mobilization activity | 8.7 ± 0.2 mg/dL | 8.8 ± 0.1 mg/dL | 8.7 ± 0.1 mg/dL | 8.7 ± 0.1 mg/dL | 8.7 ± 0.2 mg/dL | 8.7 ± 0.2 mg/dL | 8.6 ± 0.1 mg/dL | 8.9 ± 0.2 mg/dL | 8.5 ± 0.3 mg/dL | 9.0 ± 0.1 mg/dL | 8.9 ± 0.1 mg/dL | 8.8 ± 0.2 mg/dL | 8.8 ± 0.1 mg/dL | 9.7 ± 0.2 mg/dL | 9.9 ± 0.3 mg/dL | 9.5 ± 0.3 mg/dL | Activity in raising serum calcium (bone calcium mobilization) relative to 1,25-(OH)2D3 (CD-1 mice [1]; compared with 1,25-(OH)2D3, Table 1): approximately equal to 1,25-(OH)2D3; also recorded: below that of the native hormone; Activity in raising serum calcium (bone calcium mobilization) relative to 2MD (CD-1 mice [1]; compared with 2MD, Table 1): one-tenth as active as 2MD; also recorded: fell far below; HL-60 differentiation activity relative to 1,25-(OH)2D3 (HL-60 promyelocytes): essentially equal to that of 1,25-(OH)2D3; Intestinal calcium transport activity, in words (CD-1 mice [3]): more intestinal calcium transport activity than does 1,25(OH)2D3; also recorded: very strong effect on intestinal calcium absorption; Binding to the vitamin D receptor relative to 1,25-(OH)2D3 [4]: one-tenth as well |
| C=C1[C@H](O)CC(=C/C=C2\CCC[C@]3(C)[C@@H]([C@@H](C)CCCC(C)(C)O)CC[C@@H]23)C[C@H]1O [2MD, 2-methylene-19-nor-20(S)-1α, 25-(OH)2D3] |  | 8.8 ± 0.3 mg/dL | 9.4 ± 0.2 mg/dL | 9.2 ± 0.2 mg/dL | 8.9 ± 0.2 mg/dL | 8.8 ± 0.2 mg/dL | 10.1 ± 0.1 mg/dL | 10.5 ± 0.2 mg/dL | 10.1 ± 0.2 mg/dL | 8.8 ± 0.0 mg/dL | 10.9 ± 0.2 mg/dL | 12.6 ± 0.5 mg/dL | 12.0 ± 0.4 mg/dL | 8.6 ± 0.1 mg/dL | 11.5 ± 0.4 mg/dL | 10.8 ± 0.5 mg/dL | 13.4 ± 0.6 mg/dL |  |
